Read-outs that look alike come from different tables or passages of the source.
How the values were obtained:
HepG2 liver cells = assay: HepG2 toxicity assay; type: cell-based; conditions: Homo sapiens, HepG2, read-out: HepG2 IC50
P. falciparum 3D7 [1] = assay: Asexual stage in vitro antimalarial assay, [3H]-hypoxanthine incorporation; type: cell-based; conditions: Plasmodium falciparum, 3D7, read-out: Pf 3D7 IC50
[2] = test system: P. falciparum NF54 late stage gametocytes (IV–V); assay: Late stage P. falciparum; type: cell-based; conditions: Plasmodium falciparum, NF54, HN12, 72 h, read-out: Pf LSG IC50
human HDAC4 = conditions: cited from earlier work
human HDAC5 = conditions: cited from earlier work
P. falciparum histone H3 = assay: Histone hyperacetylation assay; type: cell-based, Plasmodium falciparum; conditions: 500 nM, 3 h, trophozoite-stage 3D7, Western blot anti-acetyl H3
[3] = test system: P. berghei exo-erythrocytic forms (EEF); assay: Pb liver stage assay; type: cell-based; conditions: Plasmodium berghei, 48 h, read-out: Pb EEF IC50, P. berghei exo-erythrocytic forms in HepG2-A16-CD81EGFP cells, 48 h
P. falciparum = conditions: read-out: P. falciparum IC50; cited from earlier work
P. falciparum 3D7 [4] = conditions: read-out: Pf 3D7 IC50, asexual blood stages; cited from earlier work
P. falciparum histone H4 = assay: Histone hyperacetylation assay; type: cell-based, Plasmodium falciparum; conditions: 500 nM, 3 h, trophozoite-stage 3D7, Western blot anti-acetyl H4

O=C1C(O)=C([C@H]2CC[C@H](c3ccc(Cl)cc3)CC2)C(=O)c2ccccc21 [Atovaquone] gave an IC50 (HepG2 liver cells) greater than 10000 nM.
In the case of CCN(CC)CCCC(C)Nc1ccnc2cc(Cl)ccc12 (stereo not drawn) [Chloroquine], the IC50 (P. falciparum 3D7 [1]) is reported as 10 nM and the IC50 [2] is reported as greater than 120000 nM.
For Cc1cc(C)cc(C(=O)NOCCCCCC(=O)NO)c1 [Compound 1a], the “human HDAC4 IC50” value (human HDAC4) is listed as “low nanomolar” and the “human HDAC5 IC50” value (human HDAC5) is listed as “low nanomolar”.
With Cc1ccc(C(=O)NOCCCCCC(=O)NO)cc1C [Compound 1b] the “hyperacetylation of P. falciparum histone H3” value (P. falciparum histone H3) was “to a lesser extent”.
CCCOc1ccc(C(=O)NOCCCCCC(=O)NO)cc1 [Compound 1m, N-((6-(Hydroxyamino)-6-oxohexyl)oxy)-4-propoxybenzamide] gave an IC50 [3] greater than 5000 nM.
CCCCCOc1ccc(C(=O)NOCCCCCC(=O)NO)cc1 [Compound 1n, N-((6-(Hydroxyamino)-6-oxohexyl)oxy)-4-(pentyloxy)benzamide] showed an IC50 [3] greater than 5000 nM.
In the case of CCCCCCOc1ccc(C(=O)NOCCCCCC(=O)NO)cc1 [Compound 1s, 4-(Hexyloxy)-N-((6-(hydroxyamino)-6-oxohexyl)oxy)benzamide], the IC50 [3] is reported as greater than 5000 nM.
For O=C(/C=C/c1ccccc1)N[C@@H](CCCCCC(=O)NO)C(=O)Nc1cccc2cccnc12 [Compound 2-ASA-9], the IC50 (P. falciparum) is given as 15 to 39 nM.
In the case of O=C(CCCCCCC(=O)Nc1ccccc1)NO [SAHA, suberoylanilide hydroxamic acid], the IC50 (P. falciparum 3D7 [4]) is given as 130 nM.
In the case of CCCCc1nc2cc(/C=C/C(=O)NO)ccc2n1CCN(CC)CC [SB939], the IC50 (P. falciparum) is given as 80 to 150 nM.
For CC(/C=C/C(=O)NO)=C\[C@@H](C)C(=O)c1ccc(N(C)C)cc1 [TSA, Trichostatin A], the IC50 (P. falciparum) is given as 8 to 11 nM and the “hyperacetylation of P. falciparum histone H4” value (P. falciparum histone H4) is given as “caused hyperacetylation”.
For Nc1cccc(-c2csc(NC(=O)CCCCCCC(=O)NO)n2)c1 [WR301801 (YC-II-88)], the IC50 (P. falciparum) is listed as 0.6 to 1.8 nM.
